Data from patent US10772846B2, “Methods and compositions for treating and preventing arthritis” (Montefiore Medical Center, priority 2014, dated 2020).

Tests used:
DMM mice (C57BL/6) [1] = assay: Slowing progression of OA in DMM post-traumatic OA mouse model (Safranin O staining, OARSI score); format: in vivo; details: for cartilage damage (fibrillation, erosion, loss of aggrecans) by Safranin O staining: oral daily for 8 weeks; for mean OARSI score ± standard deviation: oral gavage daily for 8 weeks, Carvacrol 50 mg/kg, Curcumin 50 mg/kg, EGCG 5 mg/kg, OPC 50 mg/kg or combination, score 0 healthy to 6 severe erosion, 8 animals/group
Text: Induction of osteoarthritis in mice. All studies were approved by the Albert Einstein College of Medicine Institutional Animal Care and Use Committee. Destabilization of the medial meniscus (DMM) was established in adult C57BL/6 mice (male, 5-6 months) by surgically transecting the medial meniscotibial ligament (MMTL) in the right hind limb (36). Briefly, the joint capsule immediately medial to the patellar tendon was incised, followed by blunt dissection of the fat pad, to provide visualization of the MMTL of the medial meniscus. The MMTL was transected, leading to DMM. In the sham surgery, the MMTL was visualized but not transected. The joint capsule and skin were closed with suture.
Animals were euthanized, hindlimbs were fixed in formalin, decalcified in formic acid, embedded in paraffin and sectioned for histology and immunohistochemistry. Sections were incubated overnight at 4° C. with antibodies against cleaved aggrecan (NITEGE, Ibex) and cleaved type II collagen (Col2-3/4M, Ibex), MMP-13 (Abcam), and ADAMTS5 (Abcam) followed by incubation with anti-mouse or anti-rabbit secondary antibody (Biocare Medical) and visualization with DAB chromagen (Vector Laboratories). Negative controls were stained with irrelevant isotype-matched antibodies (Biocare Medical). Safranin O-fast green staining was used to visualize proteoglycans in the articular cartilage. Severity of OA was evaluated for each mouse using the Osteoarthritis Research Society International (OARSI) scoring system (34) Immunostaining intensity for type II collagen or aggrecan cleavage epitopes was quantified by determining the “reciprocal intensity” of the stained articular cartilage matrix. Briefly, the light intensity value of random locations within azones from the posterior to anterior direction of the femoral and tibial condyles was measured using the color picker in Adobe Photoshop (37). Percentages of positive MMP-13 and ADAMTS5 chondrocytes were determined by counting the number of immunostained cells and dividing by the total number of chondrocytes visualized by a hematoxylin counterstain (Vector Laboratories).
To determine the efficacy of the C′-CEO formulation in slowing progression of OA in vivo, a well-established post-traumatic mouse model of OA was used. These OA mice were orally administered C′-CEO, individual compounds, or placebo daily. Severity of OA was evaluated 8 weeks after induction of OA, using a well-established and FDA recommended cartilage integrity stain, Safranin O, and a semi-quantitative Osteoarthritis Research Society International (OARSI) scoring system. Furthermore, the efficacy of the C′-CEO formulation was validated by examining the level of breakdown of two major cartilage matrix proteins, type II collagen and aggrecan, as cartilage degradation is a hallmark of OA. It was further examined how the C′-CEO formulation may have such effect by targeting CITED2 by examining CITED2 expression in the articular cartilage of these OA mice.
All studies were approved by the Albert Einstein College of Medicine Institutional Animal Care and Use Committee. Destabilization of the medial meniscus (DMM) was established in adult C57BL/6 mice (male, 5-6 months) by surgically transecting the medial meniscotibial ligament (MMTL) in the right hind limb Immediately after surgery, mice were administered either carvacrol (C′), curcumin (C), EGCG (E), OPC(O), C′-CEO, or vehicle control for 8 weeks. At 8 weeks following surgery, animals were euthanized, the hindlimbs were fixed in formalin, decalcified in formic acid, embedded in paraffin and sectioned for histology. Safranin O, a well-stablished cartilage stain, was used to visualize integrity of the articular cartilage and aggrecans in the articular cartilage. Severity of OA was evaluated using the OARSI scoring system.

DMM mice (C57BL/6) [2] = assay: Tactile sensitivity testing (von Frey) in DMM OA mice; format: in vivo; details: oral administration, 8 weeks, summary over von Frey and open field tests
Protocol: Mice were acclimated for 30 minutes in individual chambers on top of a wire grid platform prior to von Frey testing. The plantar surface of the hind paw was stimulated with ascending force intensities of von Frey filaments (Stoelting) to determine tactile sensitivity. A positive response was defined as a rapid withdrawal of the hind paw when the stimulus was applied, and the number of positive responses for each stimulus was recorded. Tactile threshold was defined as a withdrawal response in 5 out of 10 trials to a given stimulus intensity (38). This threshold was calculated once per animal.
To determine pain relief, three animal behavior assessments were used: 1) von Frey, which determined sensitivity to mechanical stimuli [OA animals tend to have lower thresholds of pain to mechanical stimuli]; 2) distance traveled—a measure of joint movement [OA animals tend to move a lesser distance compared to non-OA animals]; 3) rearing—a measure of joint function [OA animals tend to rear, or stand up on their hind limbs less than non-OA animals].

| Compound | cartilage damage (fibrillation, erosion, loss of aggrecans) by Safranin O staining (DMM mice (C57BL/6) [1]) | mean OARSI score ± standard deviation (DMM mice (C57BL/6) [1]) | pain relief of OA-associated pain (overall: mechanical sensitivity, joint movement and function) (DMM mice (C57BL/6) [2]) |
| --- | --- | --- | --- |
| Epigallocatechin-3-gallate [EGCG] | some reduction in cartilage degradation | 2.1 ± 0.29 | did not result in a statistical improvement in pain relief |
| Cc1ccc(C(C)C)cc1O [Carvacrol] | some reduction in cartilage degradation | 2.9 ± 0.45 | did not result in a statistical improvement in pain relief |
| COc1cc(/C=C/C(=O)CC(=O)/C=C/c2ccc(O)c(OC)c2)ccc1O [Curcumin] | some reduction in cartilage degradation | 2.4 ± 0.42 | did not result in a statistical improvement in pain relief |
